Results taken from patent US20230310442A1, “POLY HYDROXY OLIGOMER COATED DOLUTEGRAVIR AQUASOMES AND METHOD THEREOF” (priority 2020, published 2023).

Legend:
[1] = In vitro drug dissolution, USP Type II apparatus; type: physicochemical
Description: In vitro drug dissolution studies 01 In vitro dissolution studies of the pure dolutegravir (PD) and its aquasomal formulations (F1 to F6) were carried out using USP-Type II dissolution apparatus. 900 ml of pH 6.8 phosphate buffer was used as dissolution media and temperature was maintained at 37° C.±0.5° C. with paddle rotation speed at 50 rpm. Aliquots of 5 ml were withdrawn at various intervals and were replaced with same quantity of fresh dissolution medium to maintain the sink condition. Samples were filtered through wattman filter paper and analysed UV—Vis spectrophotometrically at 259.80 nm. The dissolution experiments were conducted in triplicate and the cumulative percentage of drug release was calculated. […] Dissolution efficiency (DE) values were calculated as per Khan^1 and T50 (time taken for 50% dissolution) values were recorded from the dissolution profiles.
A comparative in vitro drug release study was performed in pH 6.8 phosphate buffer for pure dolutegravir sodium (PD) and all designed formulations (F1-F6), the data was shown in Table 7. The dissolution experiments were conducted in triplicate. Dissolution efficiency (DE5) values were calculated as per Khan^1. T50 (time taken for 50% dissolution) values were recorded from the dissolution profiles.
The dissolution data of formulations PD and dolutegravir aquasomes were fitted into mathematical models such as zero order, first order and Hixson Crowell models kinetics and the plots were shown in Table No: 8. The release kinetics of pure drug (PD) and dolutegravir aquasomes follows zero order as well as Hixson Crowell model because the values of regression coefficient obtained for zero order release profiles are higher as compared to first order kinetics. […] The cube root dissolution rate constant (KH) of Hixson Crowell values of PD is 0.124 and optimized formulation F6 is 0.713. During dissolution, the radius of the particle, mass of the particle was changed. […]

[2] = cited from earlier work
[3] = system: herpes simplex virus (HSV) infected vero cells; assay: In vitro MTT antiviral assay; type: cell-based; settings: 0.01 to 100 μ/mL
UGT1A1 = biological target: T1, UGT1A1 (Homo sapiens, UniProt P22309); settings: cited from earlier work
T1 sequence (P22309 26-533): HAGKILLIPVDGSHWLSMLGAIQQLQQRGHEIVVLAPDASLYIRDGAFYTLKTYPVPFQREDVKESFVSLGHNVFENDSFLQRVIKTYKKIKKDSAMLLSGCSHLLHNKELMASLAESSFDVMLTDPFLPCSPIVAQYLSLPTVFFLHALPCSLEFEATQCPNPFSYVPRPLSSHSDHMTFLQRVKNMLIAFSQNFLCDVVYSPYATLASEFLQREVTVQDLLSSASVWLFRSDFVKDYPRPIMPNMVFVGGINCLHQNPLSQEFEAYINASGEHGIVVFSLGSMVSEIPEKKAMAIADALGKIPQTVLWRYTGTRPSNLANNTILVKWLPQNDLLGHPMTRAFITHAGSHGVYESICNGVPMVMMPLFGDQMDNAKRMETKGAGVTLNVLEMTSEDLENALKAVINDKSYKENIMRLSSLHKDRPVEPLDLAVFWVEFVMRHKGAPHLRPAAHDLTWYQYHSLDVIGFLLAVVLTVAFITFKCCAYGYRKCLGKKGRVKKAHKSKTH

[4] = cited from earlier work; remark: listed apart in the source
[5] = Preformulation study: solubility of dolutegravir sodium in water; type: physicochemical; settings: preformulation studies
Description: Preformulation studies of dolutegravir sodium were performed to know the physical appearance and organoleptic properties.

human plasma proteins = settings: cited from earlier work

C[C@@H]1CCO[C@H]2Cn3cc(C(=O)NCc4ccc(F)cc4F)c(=O)c(O)c3C(=O)N12 [PD, sodium (4R,12aS)-9-{[(2,4-difluorophenyl)methyl]carbamoyl}-4-methyl-6,8-dioxo-3,4,6,8,12,12a-hexahydro-2H-pyrido[1′, 2′:4,5]pyrazino[2,1-b][1,3]oxazin-7-olate]
T50 (time taken for 50% dissolution) [1]: 38.5 h | % of Dolutegravir Sodium Release ([1]; 0 hr, pH 6.8 phosphate buffer): 0% | % of Dolutegravir Sodium Release ([1]; 0.5 hr, pH 6.8 phosphate buffer): 7.38 ± 0.12% | % of Dolutegravir Sodium Release ([1]; 1 hr, pH 6.8 phosphate buffer): 13.45 ± 0.14% | % of Dolutegravir Sodium Release ([1]; 2 hr, pH 6.8 phosphate buffer): 15.27 ± 0.12% | % of Dolutegravir Sodium Release ([1]; 3 hr, pH 6.8 phosphate buffer): 15.79 ± 0.19% | % of Dolutegravir Sodium Release ([1]; 4 hr, pH 6.8 phosphate buffer): 16.92 ± 0.12% | % of Dolutegravir Sodium Release ([1]; 5 hr, pH 6.8 phosphate buffer): 17.82 ± 0.09% | % of Dolutegravir Sodium Release ([1]; 6 hr, pH 6.8 phosphate buffer): 18.33 ± 0.10% | % of Dolutegravir Sodium Release ([1]; 7 hr, pH 6.8 phosphate buffer): 20.13 ± 0.12% | % of Dolutegravir Sodium Release ([1]; 8 hr, pH 6.8 phosphate buffer): 20.27 ± 0.43% | % of Dolutegravir Sodium Release ([1]; 9 hr, pH 6.8 phosphate buffer): 22.27 ± 0.12% | % of Dolutegravir Sodium Release ([1]; 10 hr, pH 6.8 phosphate buffer): 22.45 ± 0.14% | % of Dolutegravir Sodium Release ([1]; 11 hr, pH 6.8 phosphate buffer): 25.23 ± 0.13% | % of Dolutegravir Sodium Release ([1]; 12 hr, pH 6.8 phosphate buffer): 26.45 ± 0.22% | DE5 (dissolution efficiency) ([1]; at 5 h, pH 6.8 phosphate buffer): 14.80% | Hixson Crowell (KH) ([1]; cube root dissolution rate constant): 0.124 mg^1/3/hr | First order (K1) ([1]; dissolution rate constant): 0.018 h⁻¹ | Zero order (Ko) ([1]; dissolution rate constant): 1.566 mg/h | Correlation Coefficient Values (r) First order ([1]; drug release kinetics fit): 0.845 | Correlation Coefficient Values (r) Hixson Crowell ([1]; drug release kinetics fit): 0.443 | Correlation Coefficient Values (r) Zero order ([1]; drug release kinetics fit): 0.812 | Cmax ([2]; absorption): 7.97-14.70 μm | tmax ([2]; absorption): 0.5 to 2 h | Clearance ([2]; in vivo): 1 L/h | Half-life ([2]; in vivo): 14 h | drug eliminated from urine ([2]; in vivo): 32% | drug eliminated through feces ([2]; in vivo): 53% | IC50 [3]: 57.9 ± 4.6 µg/mL | primarily metabolized by (UGT1A1): UGT1A1 | Solubility: soluble in water ([4]; at 25° C.): 3500 µg/mL | Particle Size ([4]; drug profile): 5 microns | solubility [5]: 1.6 µg/mL | protein bound to human plasma proteins (human plasma proteins): > 98.9%
